# Source: the CheMixHub viscosity set
# ± gives the uncertainty stated by the source.
# Test: xn = mol fraction of the nth substance listed
# Conditions: 101 kPa
smiles,measurement,setting,value
CC(=O)N1CCOCC1 + CCO,viscosity,"293.15 K, x1 = 0.0563",1.847 ± 0.043 mPa·s
same,viscosity,"293.15 K, x1 = 0.1288",2.747 ± 0.062 mPa·s
same,viscosity,"293.15 K, x1 = 0.2164",3.689 ± 0.082 mPa·s
same,viscosity,"293.15 K, x1 = 0.2843",4.374 ± 0.097 mPa·s
same,viscosity,"293.15 K, x1 = 0.3147",4.656 ± 0.1 mPa·s
same,viscosity,"293.15 K, x1 = 0.3944",5.318 ± 0.12 mPa·s
same,viscosity,"293.15 K, x1 = 0.4512",5.718 ± 0.12 mPa·s
same,viscosity,"293.15 K, x1 = 0.4957",6.016 ± 0.13 mPa·s
same,viscosity,"293.15 K, x1 = 0.5253",6.179 ± 0.13 mPa·s
same,viscosity,"293.15 K, x1 = 0.5832",6.499 ± 0.14 mPa·s
same,viscosity,"293.15 K, x1 = 0.6341",6.728 ± 0.14 mPa·s
same,viscosity,"293.15 K, x1 = 0.6813",6.984 ± 0.15 mPa·s
same,viscosity,"293.15 K, x1 = 0.7348",7.169 ± 0.15 mPa·s
same,viscosity,"293.15 K, x1 = 0.7921",7.459 ± 0.16 mPa·s
same,viscosity,"293.15 K, x1 = 0.8452",7.653 ± 0.16 mPa·s
same,viscosity,"293.15 K, x1 = 0.9127",8.019 ± 0.17 mPa·s
same,viscosity,"293.15 K, x1 = 0.9734",8.395 ± 0.18 mPa·s
same,viscosity,"303.15 K, x1 = 0.0563",1.495 ± 0.035 mPa·s
same,viscosity,"303.15 K, x1 = 0.1288",2.302 ± 0.053 mPa·s
same,viscosity,"303.15 K, x1 = 0.2164",3.134 ± 0.071 mPa·s
same,viscosity,"303.15 K, x1 = 0.2843",3.728 ± 0.083 mPa·s
same,viscosity,"303.15 K, x1 = 0.3147",3.974 ± 0.089 mPa·s
same,viscosity,"303.15 K, x1 = 0.3944",4.533 ± 0.1 mPa·s
same,viscosity,"303.15 K, x1 = 0.4512",4.858 ± 0.11 mPa·s
same,viscosity,"303.15 K, x1 = 0.4957",5.101 ± 0.11 mPa·s
same,viscosity,"303.15 K, x1 = 0.5253",5.227 ± 0.12 mPa·s
same,viscosity,"303.15 K, x1 = 0.5832",5.472 ± 0.12 mPa·s
same,viscosity,"303.15 K, x1 = 0.6341",5.638 ± 0.12 mPa·s
same,viscosity,"303.15 K, x1 = 0.6813",5.832 ± 0.13 mPa·s
same,viscosity,"303.15 K, x1 = 0.7348",5.948 ± 0.13 mPa·s
same,viscosity,"303.15 K, x1 = 0.7921",6.164 ± 0.14 mPa·s
same,viscosity,"303.15 K, x1 = 0.8452",6.289 ± 0.14 mPa·s
same,viscosity,"303.15 K, x1 = 0.9127",6.569 ± 0.15 mPa·s
same,viscosity,"303.15 K, x1 = 0.9734",6.932 ± 0.15 mPa·s
same,viscosity,"313.15 K, x1 = 0.0563",1.153 ± 0.028 mPa·s
same,viscosity,"313.15 K, x1 = 0.1288",1.832 ± 0.043 mPa·s
same,viscosity,"313.15 K, x1 = 0.2164",2.511 ± 0.057 mPa·s
same,viscosity,"313.15 K, x1 = 0.2843",2.983 ± 0.068 mPa·s
same,viscosity,"313.15 K, x1 = 0.3147",3.174 ± 0.072 mPa·s
same,viscosity,"313.15 K, x1 = 0.3944",3.594 ± 0.081 mPa·s
same,viscosity,"313.15 K, x1 = 0.4512",3.819 ± 0.086 mPa·s
same,viscosity,"313.15 K, x1 = 0.4957",3.983 ± 0.09 mPa·s
same,viscosity,"313.15 K, x1 = 0.5253",4.056 ± 0.092 mPa·s
same,viscosity,"313.15 K, x1 = 0.5832",4.199 ± 0.096 mPa·s
same,viscosity,"313.15 K, x1 = 0.6341",4.275 ± 0.098 mPa·s
same,viscosity,"313.15 K, x1 = 0.6813",4.387 ± 0.1 mPa·s
same,viscosity,"313.15 K, x1 = 0.7348",4.407 ± 0.1 mPa·s
same,viscosity,"313.15 K, x1 = 0.7921",4.522 ± 0.11 mPa·s
same,viscosity,"313.15 K, x1 = 0.8452",4.554 ± 0.11 mPa·s
same,viscosity,"313.15 K, x1 = 0.9127",4.788 ± 0.11 mPa·s
same,viscosity,"313.15 K, x1 = 0.9734",5.046 ± 0.12 mPa·s
same,viscosity,"323.15 K, x1 = 0.0563",0.928 ± 0.023 mPa·s
same,viscosity,"323.15 K, x1 = 0.1288",1.518 ± 0.036 mPa·s
same,viscosity,"323.15 K, x1 = 0.2164",2.096 ± 0.048 mPa·s
same,viscosity,"323.15 K, x1 = 0.2843",2.484 ± 0.057 mPa·s
same,viscosity,"323.15 K, x1 = 0.3147",2.639 ± 0.06 mPa·s
same,viscosity,"323.15 K, x1 = 0.3944",2.966 ± 0.068 mPa·s
same,viscosity,"323.15 K, x1 = 0.4512",3.122 ± 0.071 mPa·s
same,viscosity,"323.15 K, x1 = 0.4957",3.232 ± 0.074 mPa·s
same,viscosity,"323.15 K, x1 = 0.5253",3.269 ± 0.075 mPa·s
same,viscosity,"323.15 K, x1 = 0.5832",3.343 ± 0.077 mPa·s
same,viscosity,"323.15 K, x1 = 0.6341",3.358 ± 0.078 mPa·s
same,viscosity,"323.15 K, x1 = 0.6813",3.413 ± 0.08 mPa·s
same,viscosity,"323.15 K, x1 = 0.7348",3.369 ± 0.079 mPa·s
same,viscosity,"323.15 K, x1 = 0.7921",3.417 ± 0.081 mPa·s
same,viscosity,"323.15 K, x1 = 0.8452",3.434 ± 0.082 mPa·s
same,viscosity,"323.15 K, x1 = 0.9127",3.615 ± 0.087 mPa·s
same,viscosity,"323.15 K, x1 = 0.9734",3.797 ± 0.092 mPa·s
CC(N)=O + CCO,viscosity,"303.15 K, x1 = 0.0327",9.42 ± 0.92 mPa·s
same,viscosity,"303.15 K, x1 = 0.0646",10 ± 0.97 mPa·s
same,viscosity,"303.15 K, x1 = 0.0901",10.16 ± 0.98 mPa·s
same,viscosity,"303.15 K, x1 = 0.1011",12.61 ± 1.2 mPa·s
CCCCCCCCCO + CCO,viscosity,"298.15 K, x2 = 0.05",8.632 ± 0.082 mPa·s
same,viscosity,"298.15 K, x2 = 0.1",8.168 ± 0.078 mPa·s
same,viscosity,"298.15 K, x2 = 0.15",7.706 ± 0.074 mPa·s
same,viscosity,"298.15 K, x2 = 0.2",7.247 ± 0.069 mPa·s
same,viscosity,"298.15 K, x2 = 0.25",6.791 ± 0.065 mPa·s
same,viscosity,"298.15 K, x2 = 0.3",6.34 ± 0.06 mPa·s
same,viscosity,"298.15 K, x2 = 0.35",5.893 ± 0.056 mPa·s
same,viscosity,"298.15 K, x2 = 0.4",5.453 ± 0.052 mPa·s
same,viscosity,"298.15 K, x2 = 0.45",5.019 ± 0.047 mPa·s
same,viscosity,"298.15 K, x2 = 0.5",4.593 ± 0.043 mPa·s
same,viscosity,"298.15 K, x2 = 0.55",4.176 ± 0.039 mPa·s
same,viscosity,"298.15 K, x2 = 0.6",3.769 ± 0.035 mPa·s
same,viscosity,"298.15 K, x2 = 0.65",3.375 ± 0.031 mPa·s
same,viscosity,"298.15 K, x2 = 0.7",2.993 ± 0.027 mPa·s
same,viscosity,"298.15 K, x2 = 0.75",2.627 ± 0.023 mPa·s
same,viscosity,"298.15 K, x2 = 0.85",1.946 ± 0.017 mPa·s
same,viscosity,"298.15 K, x2 = 0.9",1.635 ± 0.014 mPa·s
same,viscosity,"298.15 K, x2 = 0.95",1.346 ± 0.012 mPa·s
same,viscosity,"308.15 K, x2 = 0.05",6.193 ± 0.058 mPa·s
same,viscosity,"308.15 K, x2 = 0.1",5.872 ± 0.055 mPa·s
same,viscosity,"308.15 K, x2 = 0.15",5.558 ± 0.053 mPa·s
same,viscosity,"308.15 K, x2 = 0.2",5.25 ± 0.05 mPa·s
same,viscosity,"308.15 K, x2 = 0.25",4.945 ± 0.047 mPa·s
same,viscosity,"308.15 K, x2 = 0.3",4.645 ± 0.044 mPa·s
same,viscosity,"308.15 K, x2 = 0.35",4.347 ± 0.04 mPa·s
same,viscosity,"308.15 K, x2 = 0.4",4.052 ± 0.037 mPa·s
same,viscosity,"308.15 K, x2 = 0.45",3.759 ± 0.034 mPa·s
same,viscosity,"308.15 K, x2 = 0.5",3.469 ± 0.032 mPa·s
same,viscosity,"308.15 K, x2 = 0.55",3.182 ± 0.029 mPa·s
same,viscosity,"308.15 K, x2 = 0.6",2.898 ± 0.026 mPa·s
same,viscosity,"308.15 K, x2 = 0.65",2.619 ± 0.023 mPa·s
same,viscosity,"308.15 K, x2 = 0.7",2.345 ± 0.021 mPa·s
same,viscosity,"308.15 K, x2 = 0.75",2.078 ± 0.018 mPa·s
same,viscosity,"308.15 K, x2 = 0.8",1.818 ± 0.016 mPa·s
same,viscosity,"308.15 K, x2 = 0.85",1.569 ± 0.014 mPa·s
same,viscosity,"308.15 K, x2 = 0.9",1.331 ± 0.012 mPa·s
same,viscosity,"308.15 K, x2 = 0.95",1.108 ± 0.0097 mPa·s
same,viscosity,"318.15 K, x2 = 0.05",4.473 ± 0.043 mPa·s
same,viscosity,"318.15 K, x2 = 0.1",4.273 ± 0.04 mPa·s
same,viscosity,"318.15 K, x2 = 0.15",4.073 ± 0.038 mPa·s
same,viscosity,"318.15 K, x2 = 0.2",3.874 ± 0.036 mPa·s
same,viscosity,"318.15 K, x2 = 0.25",3.675 ± 0.034 mPa·s
same,viscosity,"318.15 K, x2 = 0.3",3.475 ± 0.032 mPa·s
same,viscosity,"318.15 K, x2 = 0.35",3.275 ± 0.03 mPa·s
same,viscosity,"318.15 K, x2 = 0.4",3.074 ± 0.028 mPa·s
same,viscosity,"318.15 K, x2 = 0.45",2.871 ± 0.026 mPa·s
same,viscosity,"318.15 K, x2 = 0.5",2.668 ± 0.024 mPa·s
same,viscosity,"318.15 K, x2 = 0.55",2.465 ± 0.022 mPa·s
same,viscosity,"318.15 K, x2 = 0.6",2.261 ± 0.02 mPa·s
same,viscosity,"318.15 K, x2 = 0.65",2.059 ± 0.018 mPa·s
same,viscosity,"318.15 K, x2 = 0.7",1.858 ± 0.016 mPa·s
same,viscosity,"318.15 K, x2 = 0.75",1.66 ± 0.015 mPa·s
same,viscosity,"318.15 K, x2 = 0.8",1.466 ± 0.013 mPa·s
same,viscosity,"318.15 K, x2 = 0.85",1.277 ± 0.011 mPa·s
same,viscosity,"318.15 K, x2 = 0.9",1.094 ± 0.0096 mPa·s
same,viscosity,"318.15 K, x2 = 0.95",0.9197 ± 0.0081 mPa·s
